Source: patent publication US7572801B2, “Pyridopyrimidinone derivatives which are HM74A agonists” (Hoffmann-La Roche Inc., priority 2007, dated 2009)

Target: T1, HM74A (Homo sapiens, UniProt Q8TDS4)
T1 construct: expressed in transfected cells; host or cells: HEK-293, stably transfected (pcDNA3.1 vectors), co-expressing chimeric G protein Gqi9
Experiment: Secondary fluorescent calcium indicator assay (FLIPR)
Type: cell-based
Conditions: stable transfected HEK-293 cells expressing HM74A and chimeric G protein Gqi9
Method: Secondary Fluorescent Calcium Indicator Assay (FLIPR)
HEK-293 cells were grown in tissue culture medium (DMEM/Nut mix F12 Medium with Glutamax I (Invitrogen), containing 10% FBS) at 37° C. in a 5% CO2 atmosphere. These cells were cultured in 6-well dishes at 3×10^5 cells/well and double transfected with DNA vectors (pcDNA3.1, Invitrogen) expressing either HM74A or HM74 and the chimeric G protein Gqi9. Two days after transfection the wells were combined and plated in 150 cm^2 flasks, in the presence of 50 μg/ml Hygromycin (Invitrogen) and 500 μg/ml Geneticin (Gibco). Fourteen days after plating, colonies were picked, expanded and analyzed for expression using a functional assay (FLIPR). Stable transfected HEK-293 cells expressing either HM74A or HM74 and the chimeric G protein Gqi9 were plated at 50,000 cells/well in black 96-well plates with clear bottom (Costar) and cultured to confluency overnight in growth media (DMEM/Nut mix F12 Medium with Glutamax I (Invitrogen), containing 10% FBS) at 37° C. in a humidified cell incubator containing 5% CO2. Growth media was aspirated and replaced with 100 μl of 1× FLIPR Calcium Assay Dye (Molecular Devices) in Hank's balanced salt solution (HBSS) containing 10 mM HEPES, and […] probenecid (Sigma), for 1 hour at 37° C. Cell plates were transferred to a FLIPR unit (Molecular Devices), and 50 μl of 3× compound dilution were added. Fluorescence emissions were measured and the effects of compounds were expressed as % stimulation of maximal nicotinic acid response (100 μM). Sigmoidal curves were fitted using the XLfit3 program (ID Business Solutions Ltd. UK) and EC50 values determined.

T1 sequence (Q8TDS4 whole entry): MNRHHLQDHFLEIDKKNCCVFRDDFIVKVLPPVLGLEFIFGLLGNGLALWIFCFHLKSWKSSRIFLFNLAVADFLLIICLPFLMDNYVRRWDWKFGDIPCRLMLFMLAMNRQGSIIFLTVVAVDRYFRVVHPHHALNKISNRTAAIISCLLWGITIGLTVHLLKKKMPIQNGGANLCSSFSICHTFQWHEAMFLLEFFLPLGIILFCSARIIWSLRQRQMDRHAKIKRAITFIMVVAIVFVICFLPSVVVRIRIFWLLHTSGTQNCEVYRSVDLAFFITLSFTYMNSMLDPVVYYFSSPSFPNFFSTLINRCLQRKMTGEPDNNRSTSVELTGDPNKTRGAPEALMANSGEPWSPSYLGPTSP

EC50	Structure (SMILES)
2710 nM	COc1ccc(CCCOc2nc3ncccc3c(=O)[nH]2)cc1 [Example 28, 2-[3-(4-Methoxy-phenyl)-propoxy]-3H-pyrido[2,3-d]pyrimidin-4-one]
426 nM	Cc1ccccc1OCCCOc1nc2ncccc2c(=O)[nH]1 [Example 58, 2-(3-o-Tolyloxy-propoxy)-3H-pyrido[2,3-d]pyrimidin-4-one]
5710 nM	O=c1[nH]c(COc2ccccc2)nc2ncccc12 [Example 2, 2-Phenoxymethyl-3H-pyrido[2,3-d]pyrimidin-4-one]
